# Test system: TuJ1-immunoreactive cells in the subventricular zone and striatum
# Assay: TuJ1 immunostaining of immature neurons after embolic MCA occlusion
# Assay type: in vivo, rat
# Procedure: Male Wistar rats weighing 320 to 380 g were used in the present study. The middle cerebral artery (MCA) was occluded by placement of an embolus at the origin of the MCA. […] Ischemic rats (n=9) were treated with the same volume of tap water as a control group. Functional tests were performed and body weight was measured before ischemia and at 4, 7, 14, 21, and 28 days after onset of MCA occlusion. All rats were killed 28 days after MCA occlusion. […] These rats were killed 1 hour after the last treatment for measurements of brain levels of cGMP. […] Reverse transcription (RT)-polymerase chain reaction (PCR) was performed to detect PDE5 in brain tissue. […] Reaction product was detected with the use of 3′3′-diaminobenzidine-tetrahydrochloride (DAB; Sigma), For ′III-tubulin (TuJ1) immunostaining, which identifies immature neurons, 12 coronal sections were incubated with the antibody against TuJ1 (1:1000) at 4° C. overnight and were then incubated with a biotinylated horse anti-mouse immunoglobulin antibody at room temperature for 30 minutes. […] BrdU-immunoreactive nuclei were counted on a computer monitor to improve visualization and in 1 focal plane to avoid oversampling. All BrdU-immunoreactive-positive nuclei were counted in both the ipsilateral and contralateral walls of the lateral ventricle of the subventricular zone and in the dentate gyrus. […]
structure (smiles),measurement,setting,value
CCCc1nn(C)c2c(=O)[nH]c(-c3cc(S(=O)(=O)N4CCN(C)CC4)ccc3OCC)nc12 [Sildenafil],numbers of TuJ1-immunoreactive cells in the ipsilateral and contralateral subventricular zones,"sildenafil 2 or 5 mg/kg, 28 days after ischemia, vs control rats",significantly (P=0.05) increased numbers of TuJ1-immunoreactive cells
same,number of TuJ1 cells in the ipsilateral striatum,"sildenafil, vs contralateral hemisphere and ipsilateral striatum of control rats",significantly increased the number of TuJ1 cells

# Reference: US20120009152A1, “NITRIC OXIDE DONORS FOR TREATMENT OF DISEASE AND INJURY” (priority 2002, published 2012)
